The values below come from paper doi:10.1101/2022.05.03.490502v1 (biorxiv, 2022).

Molecules are shown by their SMILES.

The target of experiment [1] is T1, LAT1 (hLAT1; LAT1/4F2hc) (Homo sapiens, UniProt Q01650). Description: cis-inhibition of [3H]-gabapentin uptake, TREx HEK-hLAT1 cells. The experiment is classed as cell-based.
The target in experiment [2] is T1, LAT1 (hLAT1; LAT1/4F2hc). Description: cell-based. Set-up: species or system TREx HEK-hLAT1.

T1 sequence (Q01650 whole entry): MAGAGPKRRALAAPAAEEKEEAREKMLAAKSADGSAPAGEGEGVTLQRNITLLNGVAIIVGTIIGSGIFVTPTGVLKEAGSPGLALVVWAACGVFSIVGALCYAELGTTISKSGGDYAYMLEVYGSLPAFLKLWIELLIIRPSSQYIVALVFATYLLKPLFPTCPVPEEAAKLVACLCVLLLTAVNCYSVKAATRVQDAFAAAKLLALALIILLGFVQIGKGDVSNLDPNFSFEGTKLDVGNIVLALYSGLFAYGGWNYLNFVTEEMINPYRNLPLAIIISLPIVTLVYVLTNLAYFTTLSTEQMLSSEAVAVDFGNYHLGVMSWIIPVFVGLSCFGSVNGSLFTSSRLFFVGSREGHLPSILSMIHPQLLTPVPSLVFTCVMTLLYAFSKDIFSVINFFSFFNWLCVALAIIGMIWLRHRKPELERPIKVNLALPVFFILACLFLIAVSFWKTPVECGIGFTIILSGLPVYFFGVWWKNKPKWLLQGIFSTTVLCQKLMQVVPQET
T1 sequence (P08195 103-630 partner): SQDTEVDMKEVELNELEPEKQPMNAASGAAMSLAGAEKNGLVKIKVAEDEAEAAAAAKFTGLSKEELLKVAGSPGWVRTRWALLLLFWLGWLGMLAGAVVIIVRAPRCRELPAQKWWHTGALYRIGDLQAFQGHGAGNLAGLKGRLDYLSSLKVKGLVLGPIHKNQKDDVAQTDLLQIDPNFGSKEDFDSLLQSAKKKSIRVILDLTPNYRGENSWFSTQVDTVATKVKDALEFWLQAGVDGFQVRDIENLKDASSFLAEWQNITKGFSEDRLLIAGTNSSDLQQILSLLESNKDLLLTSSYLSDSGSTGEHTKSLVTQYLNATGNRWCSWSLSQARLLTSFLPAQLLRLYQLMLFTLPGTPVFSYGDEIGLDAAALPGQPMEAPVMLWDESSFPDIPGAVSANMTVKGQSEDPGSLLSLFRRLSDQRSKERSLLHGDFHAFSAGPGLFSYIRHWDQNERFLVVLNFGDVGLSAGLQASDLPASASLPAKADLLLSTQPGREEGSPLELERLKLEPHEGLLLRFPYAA

On LAT1 (hLAT1; LAT1/4F2hc) [1], `NC(Cc1ccc(O)c(OCc2ccccc2)c1)C(=O)O` (centres unmarked) [EN2] yielded an IC50 of 63.3 µM.

In turn, `N[C@@H](Cc1ccc(/N=N/c2ccccc2)cc1)C(=O)O` [EN14] gave an IC50 against LAT1 (hLAT1; LAT1/4F2hc) [2] of 16 µM. In other words, the double-digit micromolar range.

On LAT1 (hLAT1; LAT1/4F2hc) [1], `N[C@@H](CNC(=O)OCC1c2ccccc2-c2ccccc21)C(=O)O` [KH1] showed an IC50 of 44.4 µM.

`N[C@@H](Cc1c[nH]c2ccc(OCc3ccccc3)cc12)C(=O)O` [KH13] showed an IC50 against LAT1 (hLAT1; LAT1/4F2hc) [1] of 11.8 µM.

On LAT1 (hLAT1; LAT1/4F2hc) [2], `N[C@@H](Cc1ccccc1)C(=O)O` [L-Phe] gave an IC50 of 91.8 µM.
